US5492906A, “Derivatives of thieno-triazolo-diazepine and therapeutic compositions containing them” (Societe de Conseils de Recherches et d'Applications …, priority 1989, dated 1996)

What was measured:
[1] = system: platelet agregation induced by PAF; test: Inhibition of platelet agregation induced by PAF; assay type: cell-based, New Zealand rabbits; conditions: Oryctolagus cuniculus, New Zealand rabbit platelets, agregometer at 57° C., Table I
Experimental: 1) Inhibition of platelet agregation induced by PAF
This experimentation was conducted according to the method of R. KINLOUGH. RATHBONE, J. P. CAZENAVE, M. PACKHAM and F. MUSTARD, Lab. Invest. 48, 98, 1980. In this test, New Zealand rabbits were used (male New Zealand rabbits of an average weight of 5 kg).
The determinations are made on a chrono-log Coultronics agregometer, at […] coupled with a graphic recorder; the results of these determinations (in molecular concentration) are reported on the table I on the central column.

benzodiazepine receptors = test: Inhibition of the binding to benzodiazepine receptors (rat brains); conditions: rat brains incubated 1 h 30 at 4° C.; 3H-RO-15-4788 and 3H-RO-5-4864 as tracers; Table I; read-out: BDZ receptors (inhibition of the binding to benzodiazepine receptors)
From the text: 2) Inhibition of the binding to benzodiazepine receptors
The interest of the previous experimentation depends on the results obtained in this experimentation: as a compound of the invention has a benzodiazepine like structure, it is important to check whether the specific benzodiazepine activity would not appear at the dose where platelet agregation was inhibited.
Therefore, this experimentation has been conducted according to the method of MOHLER H. and RICHARD J. G. Agonist and antagonist benzodiazepine receptor intereaction in vitro, Nature, vol. 294, 763°-765, 1981.
This experimentation was conducted on rat brains incubated 1 h 30 at 4° C. using ^3 H-RO-15-4788 and ^3 H-RO-5-4864 (NEN) as tracers and […] and RO-5-4864 as reference antagonists.
The results in molecular concentration are reported in the table I, on the right hand column.

Question: Cc1nnc2n1-c1sc3c(c1C(c1ccccc1Cl)=NC2)CCN(C(=O)NC(C)C)C3 [Example 2, 6-(2-chlorophenyl)-9-isopropylcarbamoyl-7,8,9,10-tetra-hydro-1-methyl4H-pyrido[4',3':4,5]thieno[3,2-f]1,2,4-triazolo [4,3-a] 1,4-diazepine] was tested. Which IC50 [1] did it give?
Answer: 23.5 nM

Question: What about the IC50 (benzodiazepine receptors) of the same compound?
Answer: 66000 nM

Question: Which results are given for Cc1nnc2n1-c1sc3c(c1C(c1ccccc1Cl)=NC2)CCN(C(=S)NC(C)(C)C)C3 [Example 4, 6-(2-chlorophenyl)-9-tertbutylthiocarbamoyl-7,8,9,10-tetrahydro-1-methyl4H-pyrido[4',3':4,5]theno [3,2-f]1,2,4-triazolo[4,3-a]1,4-diazepine]?
Answer: IC50 [1]: 8.82 nM; IC50 (benzodiazepine receptors): 135 nM

Question: Which IC50 [1] does the source give for COc1ccc(NC(=O)N2CCc3c(sc4c3C(c3ccccc3Cl)=NCc3nnc(C)n3-4)C2)cc1 [Example 6, 6-(2-chlorophenyl)-9-(4-methoxy)phenylcarbamoyl-7,8,9,10-tetrahydro-1-methyl 4H-pyrido[4',3':4,5]thieno[3,2-f]1,2,4-triazolo[4,3-a]1,4-diazepine] here?
Answer: 127 nM

Question: What about the IC50 (benzodiazepine receptors) of the same compound?
Answer: 77000 nM

Question: COc1cc(NC(=S)N2CCc3c(sc4c3C(c3ccccc3Cl)=NCc3nnc(C)n3-4)C2)cc(OC)c1OC [Example 9, 6-(2-chlorophenyl)-9-(3,4,5-trimethoxy)phenylthiocarbamoyl-7,8,9,10-tetrahydro-1-methyl 4H-pyrido[4',3':4,5]thieno [3,2-f]1,2,4-triazolo[4,3-a]1,4-diazepine] was tested. Which IC50 [1] did it give?
Answer: 38.7 nM

Question: And the IC50 (benzodiazepine receptors)?
Answer: 4500 nM

Question: For Cc1nnc2n1-c1sc3c(c1C(c1ccccc1Cl)=NC2)CCN(C(=S)Nc1ccc(C(C)(C)C)cc1)C3 [Example 11, 6-(2-chlorophenyl)-9-(4-tertbutyl)phenylthiocarbamoyl-4H-pyrido[4',3':4,5]thieno [3,2-f]1,2,4-triazolo[4,3-a]1,4-diazepine], which IC50 [1] is on record?
Answer: 9.44 nM

Question: What about the IC50 (benzodiazepine receptors) of the same compound?
Answer: 1200 nM

Question: Cc1nnc2n1-c1sc3c(c1C(c1ccccc1Cl)=NC2)CCN(C(=S)Nc1ccccc1C(F)(F)F)C3 [Example 12, 6-(2-chlorophenyl)-9-(2-trifluoromethyl)phenylthiocarbamoyl-7,8,9,10-tetrahydro-1-methyl 4H-pyrido[4',3':4,5]thieno[3,2-f]1,2,4-triazolo[4,3-a]1,4-diazepine] was tested. Which IC50 [1] did it give?
Answer: 171 nM

Question: What about the IC50 (benzodiazepine receptors) of the same compound?
Answer: 3500 nM

Question: How did the IC50 [1] turn out when Cc1nnc2n1-c1sc3c(c1C(c1ccccc1Cl)=NC2)CCN(C(=S)Nc1cccc(C(F)(F)F)c1)C3 [Example 13, 6-(2-chlorophenyl)-9-(3-trifluoromethyl)phenylthiocarbamoyl-7,8,9,10-tetrahydro-1-methyl 4H-pyrido[4',3':4,5]thieno[3,2-f]1,2,4-triazolo[4,3-a]1,4-diazepine] was run?
Answer: 171 nM

Question: What about the IC50 (benzodiazepine receptors) of the same compound?
Answer: 6250 nM

Question: Which results are given for Cc1nnc2n1-c1sc3c(c1C(c1ccccc1Cl)=NC2)CCN(C(=S)Nc1ccc(C(F)(F)F)cc1)C3 [Example 15, 6-(2-chlorophenyl)-9-(4-trifluoromethyl)phenylthiocarbamoyl-7,8,9,10-tetrahydro-1-methyl 4H-pyrido[4',3':4,5]thieno[3,2-f]1,2,4-triazolo[4,3-a]1,4-diazepine]?
Answer: IC50 [1]: 220 nM; IC50 (benzodiazepine receptors): 1250 nM

Question: Which results are given for Cc1nnc2n1-c1sc3c(c1C(c1ccccc1Cl)=NC2)CCN(C(=S)Nc1ccc(F)cc1)C3 [Example 16, 6-(2-chlorophenyl)-9-(4-fluoro)phenylthiocarbamoyl-7,8,9,10-tetrahydro-1-methyl 4H-pyrido[4',3':4,5]thieno[3,2-f]1,2,4-triazolo[4,3-a]1,4-diazepine]?
Answer: IC50 [1]: 64 nM; IC50 (benzodiazepine receptors): 700 nM

Question: Which results are given for Cc1nnc2n1-c1sc3c(c1C(c1ccccc1Cl)=NC2)CCN(C(=S)NC(C)Cc1ccccc1)C3 (stereo not drawn) [Example 19, 6-(2-chlorophenyl)-9-(α-methyl)phenethylthiocarbamoyl-7,8,9,10-tetrahydro-1-methyl 4H-pyrido[4',3':4,5]thieno[3,2-f]1,2,4-triazolo[4,3-a]1,4-diazepine]?
Answer: IC50 [1]: 42.5 nM; IC50 (benzodiazepine receptors): 360 nM

Question: With Cc1nnc2n1-c1sc3c(c1C(c1ccccc1Cl)=NC2)CCN(C(=S)NCC(C)c1ccccc1)C3 (stereo not drawn) [Example 20, 6-(2-chlorophenyl)-9-(β-methyl)phenethylthiocarbamoyl-7,8,9,10-tetrahydro-1-methyl 4H-pyrido[4',3':4,5]thieno[3,2-f]1,2,4-triazolo[4,3-a]1,4-diazepine] as the compound, how does the IC50 [1] read?
Answer: 6.17 nM

Question: What about the IC50 (benzodiazepine receptors) of the same compound?
Answer: 720 nM

Question: With Cc1nnc2n1-c1sc3c(c1C(c1ccccc1Cl)=NC2)CCN(C(=S)Nc1ccc(S(C)(=O)=O)cc1)C3 [Example 21, 6-(2-chlorophenyl)-9-(4-methylsulfonyl)phenylthiocarbamoyl-7,8,9,10-tetrahydro-1-methyl 4H-pyrido[4',3':4,5]thieno[3,2-f]1,2,4-triazolo[4,3-a]1,4-diazepine] as the compound, how does the IC50 [1] read?
Answer: 24 nM

Question: And the IC50 (benzodiazepine receptors)?
Answer: 1100 nM

Question: What does the source list for Cc1nnc2n1-c1sc3c(c1C(c1ccccc1Cl)=NC2)CCN(C(=O)NCc1ccccc1)C3 [Example 23, 6-(2-chlorophenyl)-9-benzylcarbamoyl-7,8,9,10-tetrahydro-1-methyl-4H-pyrido[4',3':4,5]thieno[3,2-f]1,2,4-triazolo[4,3-a]1,4-diazepine]?
Answer: IC50 [1]: 66.8 nM; IC50 (benzodiazepine receptors): 1600 nM

Question: Which results are given for Cc1nnc2n1-c1sc3c(c1C(c1ccccc1Cl)=NC2)CCN(C(=S)Nc1cnc2ccccc2c1)C3 [Example 25, 6-(2-chlorophenyl)-9-(3-quinolyl)thiocarbamoyl-7,8,9,10-tetrahydro-1-methyl-4H-pyrido[4',3':4,5]thieno[3,2-f]1,2,4-triazolo[4,3-a]1,4-diazepine]?
Answer: IC50 [1]: 182 nM; IC50 (benzodiazepine receptors): 350 nM

Question: Which results are given for Cc1nnc2n1-c1sc3c(c1C(c1ccccc1Cl)=NC2)CCN(C(=S)NC1CCCCC1)C3 [Example 26, 6-(2-chlorophenyl)-9-cyclohexylthiocarbamoyl-7,8,9,10-tetrahydro-1-methyl-4H-pyrido[4',3':4,5]thieno[3,2-f]1,2,4-triazolo[4,3-a]1,4-diazepine]?
Answer: IC50 [1]: 53.3 nM; IC50 (benzodiazepine receptors): 4100 nM

Question: Which IC50 [1] does the source give for Cc1nnc2n1-c1sc3c(c1C(c1ccccc1Cl)=NC2)CCN(C(=O)NC1CCCCC1)C3 [Example 27, 6-(2-chlorophenyl)-9-cyclohexylcarbamoyl-7,8,9,10-tetrahydro-1-methyl-4H-pyrido[4', 3':4,5]thieno[3,2-f]1,2,4-triazolo[4,3-a]1,4-diazepine] here?
Answer: 45.2 nM

Question: What about the IC50 (benzodiazepine receptors) of the same compound?
Answer: 2000 nM

Question: Which results are given for C=CCNC(=S)N1CCc2c(sc3c2C(c2ccccc2Cl)=NCc2nnc(C)n2-3)C1 [Example 28, 6-(2-chlorophenyl)-9-allylthiocarbamoyl-7,8,9,10-tetrahydro-1-methyl-4H-pyrido[4',3':4,5]thieno[3,2-f]1,2,4-triazolo[4,3-a]1,4-diazepine]?
Answer: IC50 [1]: 9.05 nM; IC50 (benzodiazepine receptors): 140 nM

Question: Which IC50 [1] does the source give for Cc1nnc2n1-c1sc3c(c1C(c1ccccc1Cl)=NC2)CCN(C(=O)Nc1ccc(F)cc1F)C3 [Example 29, 6-(2-chlorophenyl)-9-(2,4-difluoro)phenylcarbamoyl-7,8,9,10-tetrahydro-1-methyl-4H-pyrido [4',3':4,5]thieno[3,2-f]1,2,4-triazolo[4,3-a]1,4-diazepine] here?
Answer: 58.6 nM

Question: And the IC50 (benzodiazepine receptors)?
Answer: 220 nM

Question: For Cc1nnc2n1-c1sc3c(c1C(c1ccccc1Cl)=NC2)CCN(C(=S)NS(=O)(=O)c1ccco1)C3 [Example 31, 6-(2-chlorophenyl)-9-(2-furylsulfonyl)thiocarbamoyl-7,8,9,10-tetrahydro-1-methyl-4H-pyrido[4',3':4,5]thieno[3,2-f]1,2,4-triazolo[4,3-a]1,4-diazepine], which IC50 [1] is on record?
Answer: 8.15 nM

Question: What about the IC50 (benzodiazepine receptors) of the same compound?
Answer: 615 nM
